10 molecules from article PMC7038953 (2020) can be followed below.

Assay in all cases: fluorescence light-up, plate reader
Common to all, as to conditions: 100 mM K+ (KCl); 20 mM Tris-HCl, pH 7.8; 5 µM dye, 5 µM oligonucleotide; not an affinity constant

For test [1], the system named is TBA25 (DNA, G4) TGGTAGGTTGGTGTGGTTGGGGCCA
The test system of test [2] is Tel23a (DNA, G4) AGGGTTAGGGTTAGGGTTAGGGT
The test system of test [3] is ON31 (RNA, G4) CACUGGUAGGUUGGUGUGGUUGGGGCCAGUG
Test [4] concerns ON15 (RNA, G4) GGUUGGUGUGGUUGG
Test [5] relates to TBA31 (DNA, G4) CACTGGTAGGTTGGTGTGGTTGGGGCCAGTG
Test [6] has as its system TBA15 (DNA, G4) GGTTGGTGTGGTTGG
The test system of test [7] is TBA63 (DNA, G4) ATAAAATAAAAAATTACACTGGTAGGTTGGTGTGGTTGGGGCCAGTGTAATTTTTTATTTTAT
Test [8] has as its system ON1+2 (ON1-ON2 duplex) (DNA, duplex) ATAAAATAAAAAATTACACTGG/CCAGTGTAATTTTTTATTTTAT

On to `CC(=O)C1=N/C(=C\c2c[nH]c3ccccc23)C(=O)N1C`, for which the “Fluorescence Intensity Enhancement” value in test [1] amounted to 31.7 ± 0.40 fold; in test [2] it was 7.1 ± 0.16 fold; in test [3], 19.0 ± 0.25 fold; in test [4], 7.1 ± 0.09 fold; in test [5] it was 20.5 ± 0.22 fold; in test [6], 2.9 ± 0.11 fold.
Turning to `CN1/C(=C/c2cc[n+](C)cc2)Sc2ccccc21`, the binding result in test [3] and in test [4] was “yes” throughout.
Regarding `CN1C(=O)/C(=C/c2ccc(O)cc2)N=C1/C=C/c1ccc(Br)cc1`, the “Fluorescence Intensity Enhancement” value worked out at 7.4 ± 0.08 fold in test [5] and 2.0 ± 0.08 fold in test [6].
With `CN1C(=O)/C(=C/c2ccc(O)cc2)N=C1/C=C/c1ccc(C(F)(F)F)cc1`, the “Fluorescence Intensity Enhancement” value in test [3] was determined as 2.5 ± 0.03 fold.
Consider `CN1C(=O)/C(=C/c2ccc(O)cc2)N=C1/C=C/c1ccc(N(C)C)cc1`, for which the “Fluorescence Intensity Enhancement” value is recorded as 20.6 ± 0.29 fold in test [1] and 12.3 ± 0.13 fold in test [5].
`CN1C(=O)/C(=C/c2ccc(O)cc2)N=C1/C=C/c1ccccc1F`: the “Fluorescence Intensity Enhancement” value in test [1] is 23.0 ± 0.25 fold.
As to `CN1C(=O)/C(=C/c2ccc(O)cc2)N=C1C(=O)c1ccccc1`, the figures for the “Fluorescence Intensity Enhancement” value in test [1] and in test [4] were 8.7 ± 0.17 fold and 6.1 ± 0.10 fold, respectively.
On to `CN1C(=O)/C(=C/c2ccccc2)N=C1Nc1ccccc1`, for which the “Fluorescence Intensity Enhancement” value in test [3] stood at 11.0 ± 0.13 fold; in test [4], 4.7 ± 0.11 fold.
With `COc1cc(/C=C2N=C(/C=C/c3ccncc3)N(C)C\2=O)cc(OC)c1O`, the “Fluorescence Intensity Enhancement” value in test [2] worked out at 6.2 ± 0.12 fold; in test [3], 6.8 ± 0.13 fold; in test [5], 16.5 ± 0.18 fold; in test [6], 3.3 ± 0.13 fold.
As to `Cc1ccc(/C(O)=C/C2=NC(=C\c3ccc(O)cc3)/C(=O)N2C)cc1`, the “Fluorescence Intensity Enhancement” value in test [1] came out at 19.1 ± 0.21 fold; in test [2], 12.4 ± 0.19 fold; in test [7] it was 12.1 ± 0.15 fold; in test [8], 4.0 ± 0.09 fold; in test [5] it was 18.8 ± 0.28 fold; in test [6], 2.1 ± 0.12 fold.
